Where a name gives a salt, the structure may show the parent alone.
Target: T1, MPO (purified from human polynuclear leukocytes) (Homo sapiens, UniProt P05164)
T1 construct: purified from human polynuclear leukocytes; purchased Calbiochem/EMD Biosciences; host or cells: human polynuclear leukocytes (natural source)
Assay: MPO Amplex Red Activity Assay
Assay type: biochemical
Details: Table 1, 2 μM H2O2, pH 7.4
Method in brief: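 Potency is given as kinact/KI: kobs values from 600 s progress curves, minus the uninhibited rate, are fit against inhibitor concentration. Reactions use 2 μM H2O2, 30 μM Amplex Red, pH 7.4 phosphate buffer with NaCl, DTPA and 2% DMSO, started with […] human MPO. Readout is resorufin fluorescence, catalase background subtracted.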

T1 sequence (P05164 279-745 limits assumed): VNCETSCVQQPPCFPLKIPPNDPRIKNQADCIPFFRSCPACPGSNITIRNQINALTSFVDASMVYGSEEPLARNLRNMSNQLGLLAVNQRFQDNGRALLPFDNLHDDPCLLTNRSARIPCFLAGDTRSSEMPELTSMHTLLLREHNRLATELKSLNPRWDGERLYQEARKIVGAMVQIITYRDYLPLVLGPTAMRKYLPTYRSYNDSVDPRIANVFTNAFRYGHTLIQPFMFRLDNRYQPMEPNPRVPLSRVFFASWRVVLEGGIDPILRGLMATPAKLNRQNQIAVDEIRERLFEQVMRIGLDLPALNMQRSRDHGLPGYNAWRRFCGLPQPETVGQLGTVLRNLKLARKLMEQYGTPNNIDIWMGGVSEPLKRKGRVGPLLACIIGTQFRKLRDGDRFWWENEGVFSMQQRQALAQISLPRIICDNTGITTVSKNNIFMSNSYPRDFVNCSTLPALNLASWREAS
T1 sequence (P05164 165-273 limits assumed): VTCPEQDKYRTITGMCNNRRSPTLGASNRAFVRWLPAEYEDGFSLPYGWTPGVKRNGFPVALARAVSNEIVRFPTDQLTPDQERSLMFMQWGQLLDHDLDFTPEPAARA

SMILES	MPO kinact/Ki
COc1ccc(Cl)cc1-c1cc(=O)[nH]c(=S)n1CC1CCNCC1 [Example 132, 6-(5-chloro-2-methoxyphenyl)-1-(piperidin-4-ylmethyl)-2-thioxo-2,3-dihydropyrimidin-4(1H)-one hydrochloride]	3840 1/s per M
COc1ccc(Cl)cc1-c1cc(=O)[nH]c(=S)n1CCCN=C(N)N [Example 133, 2-{3-[6-(5-chloro-2-methoxyphenyl)-4-oxo-2-thioxo-3,4-dihydropyrimidin-1(2H)-yl]propyl} guanidine]	15300 1/s per M
COc1ccc(Cl)cc1-c1cc(=O)[nH]c(=S)n1CCCNC(C)=O [Example 134, N-{3-[6-(5-chloro-2-methoxyphenyl)-4-oxo-2-thioxo-3,4-dihydropyrimidin-1(2H)-yl]propyl} acetamide]	5350 1/s per M
COc1ccc(Cl)cc1-c1cc(=O)[nH]c(=S)n1CCNC(=O)CN [Example 135, N-{2-[6-(5-chloro-2-methoxyphenyl)-4-oxo-2-thioxo-3,4-dihydropyrimidin-1(2H)-yl]ethyl} glycinamide hydrochloride]	6750 1/s per M
COc1ccc(-c2cc(=O)[nH]c(=S)n2CCNC(=N)NC#N)c(OC)c1 [Example 136, 1-cyano-3-{2-[6-(2,4-dimethoxyphenyl)-4-oxo-2-thioxo-3,4-dihydropyrimidin-1(2H)-yl]ethyl}guanidine]	1920 1/s per M
COc1ccc(-c2cc(=O)[nH]c(=S)n2CC(=O)OC(C)(C)C)c(OC)c1 [Example 137, tert-butyl[6-(2,4-dimethoxyphenyl)-4-oxo-2-thioxo-3,4-dihydropyrimidin-1(2H)-yl]acetate]	701 1/s per M
COc1cc(OC)c(-c2cc(=O)[nH]c(=S)n2CCN=C(N)N)cc1OC [Example 138, 2-{2-[4-oxo-2-thioxo-6-(2,4,5-trimethoxyphenyl)-3,4-dihydropyrimidin-1(2H)-yl]ethyl}guanidine hydrochloride]	4530 1/s per M
CCOC(=O)Cn1c(-c2cc(OC)c(OC)cc2OC)cc(=O)[nH]c1=S [Example 139, ethyl[4-oxo-2-thioxo-6-(2,4,5-trimethoxyphenyl)-3,4-dihydropyrimidin-1(2H)-yl]acetate]	2890 1/s per M
COc1ccc(-c2cc(=O)[nH]c(=S)n2CCOCCNC(=N)N)c(OC)c1 [Example 140, 1-(2-{2-[6-(2,4-dimethoxyphenyl)-4-oxo-2-thioxo-3,4-dihydropyrimidin-1(2H)-yl]ethoxy}ethyl) guanidine formate]	10400 1/s per M
COc1cc(OC)c(-c2cc(=O)[nH]c(=S)n2CCCN=C(N)N)cc1OC [Example 141, 2-{3-[4-oxo-2-thioxo-6-(2,4,5-trimethoxyphenyl)-3,4-dihydropyrimidin-1(2H)-yl]propyl} guanidine trifluoroacetate]	10500 1/s per M
NCCn1c(-c2cccc3[nH]ccc23)cc(=O)[nH]c1=S [Example 142, 1-(2-aminoethyl)-6-(1H-indol-4-yl)-2-thioxo-2,3-dihydropyrimidin-4(1H)-one trifluoroacetate]	4210 1/s per M
NCCn1c(-c2cccc3ccoc23)cc(=O)[nH]c1=S [Example 143, 1-(2-aminoethyl)-6-(1-benzofuran-7-yl)-2-thioxo-2,3-dihydropyrimidin-4(1H)-one hydrochloride]	8110 1/s per M
NCCn1c(-c2ccccc2-n2nccn2)cc(=O)[nH]c1=S [Example 144, 1-(2-aminoethyl)-2-thioxo-6-[2-(2H-1,2,3-triazol-2-yl)phenyl]-2,3-dihydropyrimidin-4(1H)-one hydrochloride]	6010 1/s per M
COc1cc(OC)c(-c2cc(=O)[nH]c(=S)n2CC(N)=O)cc1C [Example 146, 2-[6-(2,4-dimethoxy-5-methylphenyl)-4-oxo-2-thioxo-3,4-dihydropyrimidin-1(2H)-yl]acetamide]	8950 1/s per M
COc1cc(-c2cc(=O)[nH]c(=S)n2CC(N)=O)c(OC)cc1C [Example 147, 2-[6-(2,5-dimethoxy-4-methylphenyl)-4-oxo-2-thioxo-3,4-dihydropyrimidin-1(2H)-yl]acetamide]	6500 1/s per M
COc1ccc(Cl)cc1-c1cc(=O)[nH]c(=S)n1CCCNC(N)=O [Example 148, 1-{3-[6-(5-chloro-2-methoxyphenyl)-4-oxo-2-thioxo-3,4-dihydropyrimidin-1(2H)-yl]propyl}urea]	6690 1/s per M
COc1ccc(Cl)cc1-c1cc(=O)[nH]c(=S)n1CCCNC(=O)CN [Example 149, N-{3-[6-(5-chloro-2-methoxyphenyl)-4-oxo-2-thioxo-3,4-dihydropyrimidin-1(2H)-yl]propyl} glycinamide hydrochloride]	9770 1/s per M
COc1ccc(-c2cc(=O)[nH]c(=S)n2C[C@@H]2CCCNC2)c(OC)c1 [Example 151, 6-(2,4-dimethoxyphenyl)-1-[(3R)-piperidin-3-ylmethyl]-2-thioxo-2,3-dihydropyrimidin-4(1H)-one hydrochloride]	3740 1/s per M
COc1ccc(-c2cc(=O)[nH]c(=S)n2CCC2CCNCC2)c(OC)c1 [Example 152, 6-(2,4-dimethoxyphenyl)-1-(2-piperidin-4-ylethyl)-2-thioxo-2,3-dihydropyrimidin-4(1H)-one hydrochloride]	4770 1/s per M
COc1ccc(-c2cc(=O)[nH]c(=S)n2CCC2CCN(C(C)=O)CC2)c(OC)c1 [Example 153, 1-[2-(1-acetylpiperidin-4-yl)ethyl]-6-(2,4-dimethoxyphenyl)-2-thioxo-2,3-dihydropyrimidin-4(1H)-one]	2200 1/s per M
COCCn1c(-c2ncc[nH]2)cc(=O)[nH]c1=S [Example 154, 6-(1H-imidazol-2-yl)-1-(2-methoxyethyl)-2-thioxo-2,3-dihydropyrimidin-4(1H)-one]	1070 1/s per M
COc1cccc(OC)c1-c1cc(=O)[nH]c(=S)n1C [Example 157, 6-(2,6-dimethoxyphenyl)-1-methyl-2-thioxo-2,3-dihydropyrimidin-4(1H)-one]	7320 1/s per M
COCCn1c(-c2ccccc2F)cc(=O)[nH]c1=S [Example 158, 6-(2-fluorophenyl)-1-(2-methoxyethyl)-2-thioxo-2,3-dihydropyrimidin-4(1H)-one]	1750 1/s per M
COCCn1c(-c2ccccc2OC)cc(=O)[nH]c1=S [Example 160, 1-(2-methoxyethyl)-6-(2-methoxyphenyl)-2-thioxo-2,3-dihydropyrimidin-4(1H)-one]	7540 1/s per M
O=c1cc(-c2cccc3ccccc23)n(CCO)c(=S)[nH]1 [Example 162, 1-(2-hydroxyethyl)-6-(1-naphthyl)-2-thioxo-2,3-dihydropyrimidin-4(1H)-one]	8950 1/s per M
COCCn1c(-c2ccc(N(C)C)nc2)cc(=O)[nH]c1=S [Example 165, 6-[6-(dimethylamino)pyridin-3-yl]-1-(2-methoxyethyl)-2-thioxo-2,3-dihydropyrimidin-4(1H)-one]	1280 1/s per M

Other lines, results leading:

MPO kinact/Ki	SMILES
5080 1/s per M	COc1ncc(Cl)cc1-c1cc(=O)[nH]c(=S)n1CC(N)=O [Example 145, 2-[6-(5-chloro-2-methoxypyridin-3-yl)-4-oxo-2-thioxo-3,4-dihydropyrimidin-1(2H)-yl]acetamide]
8970 1/s per M	COc1ncc(C)cc1-c1cc(=O)[nH]c(=S)n1CCO [Example 150, 1-(2-hydroxyethyl)-6-(2-methoxy-5-methylpyridin-3-yl)-2-thioxo-2,3-dihydropyrimidin-4(1H)-one]
8090 1/s per M	COc1cccc(-c2cc(=O)[nH]c(=S)n2CCO)c1 [Example 155, 1-(2-hydroxyethyl)-6-(3-methoxyphenyl)-2-thioxo-2,3-dihydropyrimidin-4(1H)-one]
16800 1/s per M	COc1ccccc1-c1cc(=O)[nH]c(=S)n1CCO [Example 156, 1-(2-hydroxyethyl)-6-(2-methoxyphenyl)-2-thioxo-2,3-dihydropyrimidin-4(1H)-one]
11400 1/s per M	COc1ccc(C)cc1-c1cc(=O)[nH]c(=S)n1CCN [Example 159, 1-(2-aminoethyl)-6-(2-methoxy-5-methylphenyl)-2-thioxo-2,3-dihydropyrimidin-4(1H)-one hydrochloride]
29600 1/s per M	COc1ccc(C)cc1-c1cc(=O)[nH]c(=S)n1CCO [Example 161, 1-(2-hydroxyethyl)-6-(2-methoxy-5-methylphenyl)-2-thioxo-2,3-dihydropyrimidin-4(1H)-one]
8090 1/s per M	COc1ccc(C#N)cc1-c1cc(=O)[nH]c(=S)n1CCO [Example 163, 3-[3-(2-hydroxyethyl)-6-oxo-2-thioxo-1,2,3,6-tetrahydropyrimidin-4-yl]-4-methoxybenzonitrile]
14900 1/s per M	COc1ccc(C)cc1-c1cc(=O)[nH]c(=S)n1CC(N)=O [Example 164, 2-[6-(2-methoxy-5-methylphenyl)-4-oxo-2-thioxo-3,4-dihydropyrimidin-1(2H)-yl]acetamide]
8920 1/s per M	COc1ccc(OC)c(-c2cc(=O)[nH]c(=S)n2CCN)c1 [Example 166, 1-(2-aminoethyl)-6-(2,5-dimethoxyphenyl)-2-thioxo-2,3-dihydropyrimidin-4(1H)-one hydrochloride]
20300 1/s per M	COc1cccc(OC)c1-c1cc(=O)[nH]c(=S)n1CCO [Example 167, 6-(2,6-dimethoxyphenyl)-1-(2-hydroxyethyl)-2-thioxo-2,3-dihydropyrimidin-4(1H)-one]
8890 1/s per M	O=c1cc(-c2ccccc2OCCO)n(CCO)c(=S)[nH]1 [Example 168, 6-[2-(2-hydroxyethoxy)phenyl]-1-(2-hydroxyethyl)-2-thioxo-2,3-dihydropyrimidin-4(1H)-one]

Source: patent publication US9399626B2, “2-thiopyrimidinones” (Pfizer Inc., priority 2011, dated 2016)
